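A five-concentration, 48-hour dose response in 96-well plates underlies each endpoint, interpolated linearly between surrounding concentrations. At the GI50, growth is halved. Definition used: TGI = concentration required for complete inhibition of growth.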
Assays:
Assay in all cases: inhibition of tumour cell growth, NCI panel, 48 h
DMS 273 small cell lung = tested on: DMS 273 small cell lung
KM20L2 colon = tested on: KM20L2 colon
M19-MEL melanoma = tested on: M19-MEL melanoma
SNB-19 CNS = tested on: SNB-19 CNS
SNB-78 CNS = tested on: SNB-78 CNS
BT-549 breast = tested on: BT-549 breast
MCF7 breast = tested on: MCF7 breast
MDA-MB-231 breast = tested on: MDA-MB-231 breast
MDA-MB-435 = tested on: MDA-MB-435
T-47D breast = tested on: T-47D breast

Row | Structure (SMILES) | TGI (DMS 273 small cell lung) [µM] | TGI (KM20L2 colon) [µM] | TGI (M19-MEL melanoma) [µM] | TGI (SNB-19 CNS) [µM] | TGI (SNB-78 CNS) [µM] | GI50 (BT-549 breast) [µM] | TGI (BT-549 breast) [µM] | GI50 (MCF7 breast) [µM] | TGI (MCF7 breast) [µM] | GI50 (MDA-MB-231 breast) [µM] | TGI (MDA-MB-231 breast) [µM] | GI50 (MDA-MB-435) [µM] | TGI (MDA-MB-435) [µM] | GI50 (SNB-19 CNS) [µM] | GI50 (T-47D breast) [µM] | TGI (T-47D breast) [µM]
1 | O=[N+]([O-])c1cnn(C2=CNc3ccccc3N=C2)c1 | > 100 | > 100 | > 100 | > 100 | > 100 |  |  |  |  |  |  |  |  |  |  | 
2 | Cc1cccc(-n2c(=S)[nH]c3c(sc(=O)n3-c3ccccc3C)c2=O)c1 | > 100 | > 100 | > 100 | > 100 | > 100 |  |  |  |  |  |  |  |  |  |  | 
3 | CCOC(=O)c1cc(/C=C/C(C)=C/C(=O)OC)oc1C |  | > 100 | > 100 | > 100 | > 100 |  |  |  |  |  |  |  |  |  |  | 
4 | COc1cc(C(=O)Nc2cc3c(cc2Oc2cc(C)cc(C)c2)C(=O)N(C)[C@@H](CC(=O)N(C)O)C(=O)N3)c(Br)c(OC)c1OC |  |  |  | 0.00576 |  | < 0.00333 | < 0.00333 | < 0.00333 | 0.00821 | < 0.00333 | < 0.00333 | < 0.00333 | 0.00351 | < 0.00333 | < 0.00333 | < 0.00333
5 | NC(=S)NNc1c([N+](=O)[O-])cnn(-c2ccccc2)c1=O | 33.8 | 29.8 | 26.5 | 33.9 | 48.3 |  |  |  |  |  |  |  |  |  |  | 
6 | O=C(O)C1CCCCC1C(=O)O.[NH-]C1CCC1.[NH2-].[Pt+2] (stereo not given) |  |  |  | > 100 |  | 19.8 | 77.9 | 22.7 | > 100 | 18.8 | 38.2 | 15.7 | 29.3 | > 100 | 11 | 34.7
7 | CCN(CC)C(=S)Oc1cc2oc(=O)cc(C)c2cc1Cl |  |  |  | > 100 |  |  | > 100 |  | > 100 |  | > 100 |  | > 100 |  |  | > 100
8 | Nc1ccccc1C#C/C=C\C#Cc1ccccc1[N+](=O)[O-] |  |  |  | 96.2 |  | 4.66 | 22.6 | 3.32 | > 100 | 2.61 | 14.6 | 0.402 | 14.1 | 19.8 | 34.6 | > 100
9 | CCC1=NC(CO)[C@H](c2ccccc2)O1 (stereo not given in full) | > 100 | > 100 | > 100 | > 100 | > 100 |  |  |  |  |  |  |  |  |  |  | 
10 | CCCCN(CCCC)c1c([N+](=O)[O-])c(=O)nc2ccccn12 |  | > 100 | > 100 | > 100 | > 100 |  |  |  |  |  |  |  |  |  |  | 
11 | C/C(=N\N(c1ccccc1)c1ccccc1)c1c(O)cc(C)oc1=O |  | > 100 | > 100 | > 100 | > 100 |  |  |  |  |  |  |  |  |  |  | 
12 | COC1OC(CO)C(O)C1N (stereo not given) |  | > 100 |  | > 100 | > 100 |  |  |  |  |  |  |  |  |  |  | 
13 | CCOP(=O)(OCC)OC(C#N)c1ccc(-c2ccccc2)cc1 (stereo not given) | 27.5 | > 100 | 50.3 | > 100 | > 100 |  |  |  |  |  |  |  |  |  |  | 
14 | COc1ccc(/C=C\c2cc(OC)c(O[Si](C)(C)C(C)(C)C)c(OC)c2)cc1 | > 100 | > 100 | > 100 | > 100 |  |  |  |  |  |  |  |  |  |  |  | 
15 | OCCNc1ncnc2c1ncn2Cc1cccc(COc2cccc(OCc3cccc(Cn4cnc5c(NCCO)ncnc54)c3)c2)c1 |  |  |  | 30.4 |  | 11.9 | 25.9 | 12.6 | 26.1 | 14.5 | 29.3 | 14.9 | 35.7 | 15.4 | 16 | 33.4
16 | CN(C)CC1CCC/C1=N\O (stereo not given) | > 100 | > 100 | > 100 |  | > 100 |  |  |  |  |  |  |  |  |  |  | 
17 | CC[C@]1(O)C(=O)OCc2c1cc1n(c2=O)Cc2cc3c(N)cccc3nc2-1 | > 100 | > 100 | > 100 | > 100 |  |  |  |  |  |  |  |  |  |  |  | 
18 | COc1ccc(-c2ccc(-c3ccc(C(=N)N)cn3)o2)cc1 |  |  |  | 24.6 |  | 10.7 | 22.8 | 3.17 | 13.4 | 3.34 | 15.3 | 2.18 | 4.97 | 11.7 | 5.13 | 21
19 | Cn1c2c(c3ccc(Cl)c(Cl)c31)C(C#N)C1(CCNCC1)NC2=O (stereo not given) |  |  |  | 13 |  | 3.04 | 16.7 | 1.45 | 3.01 | 1.54 | 3.46 | 1.4 | 2.9 | 3.1 | 1.72 | 3.94
20 | NCCCCNc1ccc2c(=O)[nH][nH]c(=O)c2c1 | > 100 | > 100 | > 100 | > 100 | > 100 |  |  |  |  |  |  |  |  |  |  | 
21 | CCOC(=O)/C=C/C1=C(c2cccs2)c2ccccc2CC1 |  |  |  | > 100 |  | 24.2 | 54.3 | 36.1 | > 100 | 20.5 | 64.7 | 20.6 | 51.3 | 30.9 | 36.5 | > 100
22 | CN1CC[C@]2(C)c3ccc(O)cc3CC3CCCC1C32C (stereo not given in full) |  | > 100 | > 100 | > 100 | > 100 |  |  |  |  |  |  |  |  |  |  | 
23 | Cc1cccc(C)c1NC(=O)C1C(=O)N(c2c(C)cccc2C)C(=O)/C1=N\NC(N)=S (stereo not given) |  | > 100 | > 100 | > 100 | > 100 |  |  |  |  |  |  |  |  |  |  | 
24 | C/C=C/C=C/C=C/C=C/C(=O)O | > 100 | > 100 |  | > 100 | > 100 |  |  |  |  |  |  |  |  |  |  | 
25 | CCOC(=O)/C=C1\CCCC12OCCO2 | > 100 | > 100 | > 100 | > 100 | > 100 |  |  |  |  |  |  |  |  |  |  | 
26 | COc1ccccc1/C=C/C(=O)c1ccccc1 |  |  |  | 26.4 |  | 10.2 | 23.9 | 1.56 | 10.2 | 14.4 | 35.2 | 5.16 | 21.7 | 12.7 | 16.8 | 63.3
27 | Cc1ccc(-c2csc(NC(=O)CN3CCN(c4cc5c(cc4F)c(=O)c(C(=O)O)cn5C4CC4)CC3)n2)cc1 |  |  |  | 27 |  | 0.358 | 10.7 | 0.638 | > 100 | 2.08 | 13.7 | 1.77 | > 100 | 0.87 | 1.16 | 6.02
28 | Cc1cc(Cl)ccc1Nc1nc(C(F)(F)F)ccc1C(=O)N/N=C/c1ccc([N+](=O)[O-])cc1 |  |  |  | > 100 |  | 1.5 | 4.96 | 1.58 | 6.93 | 1.86 | 5.78 | 2.45 | 7.69 | 3.61 | 2.39 | 11.6

— PubChem BioAssay (NCI)
